Source: article PMC6199744, “Development of Chemical Proteomics for the Folateome and Analysis of the Kinetoplastid Folateome” (ACS Infectious Diseases, 2018)
Like-named read-outs stand apart in the source and are kept apart here.

How the values were obtained:
Type in all cases: binding
[1] = target: T1, HeLa cell extract proteins (Homo sapiens, UniProt O75694)
T1 construct: endogenous in cells; host or cells: HeLa cell extract
T1 sequence (O75694 1-1391): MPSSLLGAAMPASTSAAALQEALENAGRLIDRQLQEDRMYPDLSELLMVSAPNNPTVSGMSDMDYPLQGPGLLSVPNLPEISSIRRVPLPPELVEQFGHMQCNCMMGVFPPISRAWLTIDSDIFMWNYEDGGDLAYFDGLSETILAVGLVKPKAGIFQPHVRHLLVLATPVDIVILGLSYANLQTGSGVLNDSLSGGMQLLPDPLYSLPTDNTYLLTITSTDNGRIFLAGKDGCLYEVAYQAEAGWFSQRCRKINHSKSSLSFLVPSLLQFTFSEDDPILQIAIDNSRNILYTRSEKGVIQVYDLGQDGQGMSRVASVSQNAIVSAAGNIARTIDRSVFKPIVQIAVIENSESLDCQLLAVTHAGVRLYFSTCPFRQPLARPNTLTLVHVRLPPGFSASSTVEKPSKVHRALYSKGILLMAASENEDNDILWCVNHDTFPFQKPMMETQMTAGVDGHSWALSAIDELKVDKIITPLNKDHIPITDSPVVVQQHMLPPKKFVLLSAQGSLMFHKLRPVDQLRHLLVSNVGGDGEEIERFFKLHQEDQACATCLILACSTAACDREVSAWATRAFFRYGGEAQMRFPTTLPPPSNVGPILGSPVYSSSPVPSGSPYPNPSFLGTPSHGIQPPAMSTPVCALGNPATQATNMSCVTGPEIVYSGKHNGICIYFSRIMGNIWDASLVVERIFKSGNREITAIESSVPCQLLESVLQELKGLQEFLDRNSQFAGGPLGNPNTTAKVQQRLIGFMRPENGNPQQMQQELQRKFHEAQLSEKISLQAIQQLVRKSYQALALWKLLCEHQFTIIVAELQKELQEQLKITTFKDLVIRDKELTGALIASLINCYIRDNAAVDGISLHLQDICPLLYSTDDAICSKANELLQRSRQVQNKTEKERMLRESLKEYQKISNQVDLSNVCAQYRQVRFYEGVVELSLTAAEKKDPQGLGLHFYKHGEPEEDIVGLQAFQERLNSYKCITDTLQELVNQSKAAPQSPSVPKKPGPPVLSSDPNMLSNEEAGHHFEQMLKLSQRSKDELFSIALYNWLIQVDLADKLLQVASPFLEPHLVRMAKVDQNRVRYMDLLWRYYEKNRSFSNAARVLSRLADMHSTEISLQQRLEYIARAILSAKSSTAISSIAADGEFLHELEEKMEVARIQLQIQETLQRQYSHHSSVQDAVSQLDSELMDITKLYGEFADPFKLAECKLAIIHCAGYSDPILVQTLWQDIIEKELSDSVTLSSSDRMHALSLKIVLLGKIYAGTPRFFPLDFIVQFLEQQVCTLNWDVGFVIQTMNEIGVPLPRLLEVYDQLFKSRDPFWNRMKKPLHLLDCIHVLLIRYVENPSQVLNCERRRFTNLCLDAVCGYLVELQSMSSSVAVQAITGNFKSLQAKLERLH

[2] = target: T2, HeLa cell extract proteins (Homo sapiens, UniProt O15397)
T2 construct: endogenous in cells; host or cells: HeLa cell extract
T2 sequence (O15397 whole entry): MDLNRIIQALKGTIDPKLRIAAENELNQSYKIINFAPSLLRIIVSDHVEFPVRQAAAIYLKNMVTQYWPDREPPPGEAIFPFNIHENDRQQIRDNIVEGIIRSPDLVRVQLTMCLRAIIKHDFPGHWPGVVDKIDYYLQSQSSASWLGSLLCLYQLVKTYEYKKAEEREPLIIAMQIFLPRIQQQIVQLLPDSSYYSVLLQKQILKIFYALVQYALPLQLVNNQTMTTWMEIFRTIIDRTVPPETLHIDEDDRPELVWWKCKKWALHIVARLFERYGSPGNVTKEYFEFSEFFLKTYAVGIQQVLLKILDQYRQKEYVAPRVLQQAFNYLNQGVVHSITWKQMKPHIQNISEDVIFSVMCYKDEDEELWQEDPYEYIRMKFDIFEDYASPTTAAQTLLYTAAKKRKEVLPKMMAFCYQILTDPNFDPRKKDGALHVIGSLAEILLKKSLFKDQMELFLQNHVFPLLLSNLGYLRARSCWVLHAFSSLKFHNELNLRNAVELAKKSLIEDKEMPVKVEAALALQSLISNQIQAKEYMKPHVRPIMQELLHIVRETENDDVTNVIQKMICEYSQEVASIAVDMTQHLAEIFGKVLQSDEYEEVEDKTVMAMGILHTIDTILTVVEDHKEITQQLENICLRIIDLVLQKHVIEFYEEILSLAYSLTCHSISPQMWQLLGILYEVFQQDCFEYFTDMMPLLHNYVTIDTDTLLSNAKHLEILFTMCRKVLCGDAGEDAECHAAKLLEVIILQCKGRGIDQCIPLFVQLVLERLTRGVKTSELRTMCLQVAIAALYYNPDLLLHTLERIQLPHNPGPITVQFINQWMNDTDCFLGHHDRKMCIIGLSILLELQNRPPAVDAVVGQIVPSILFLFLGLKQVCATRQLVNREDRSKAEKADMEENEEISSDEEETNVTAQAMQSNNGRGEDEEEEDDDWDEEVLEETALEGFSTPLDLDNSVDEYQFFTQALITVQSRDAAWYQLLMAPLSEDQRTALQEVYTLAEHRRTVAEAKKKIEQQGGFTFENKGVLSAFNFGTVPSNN

[3] = target: T3, HeLa cell extract proteins (Homo sapiens, UniProt P07339)
T3 construct: endogenous in cells; host or cells: HeLa cell extract
T3 sequence (P07339 65-412): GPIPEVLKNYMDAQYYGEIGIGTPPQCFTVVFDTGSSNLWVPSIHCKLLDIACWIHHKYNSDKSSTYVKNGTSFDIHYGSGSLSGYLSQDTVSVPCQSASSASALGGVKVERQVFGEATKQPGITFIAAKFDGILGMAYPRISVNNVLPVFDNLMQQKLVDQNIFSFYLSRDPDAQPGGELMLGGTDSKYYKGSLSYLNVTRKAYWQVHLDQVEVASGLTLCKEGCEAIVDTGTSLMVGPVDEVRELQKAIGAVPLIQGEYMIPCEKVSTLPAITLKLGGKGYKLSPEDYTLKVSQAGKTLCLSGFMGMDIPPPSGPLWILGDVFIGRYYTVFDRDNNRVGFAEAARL

[4] = target: T4, HeLa cell extract proteins (Homo sapiens, UniProt Q86X55)
T4 construct: endogenous in cells; host or cells: HeLa cell extract
T4 sequence (Q86X55 1-608): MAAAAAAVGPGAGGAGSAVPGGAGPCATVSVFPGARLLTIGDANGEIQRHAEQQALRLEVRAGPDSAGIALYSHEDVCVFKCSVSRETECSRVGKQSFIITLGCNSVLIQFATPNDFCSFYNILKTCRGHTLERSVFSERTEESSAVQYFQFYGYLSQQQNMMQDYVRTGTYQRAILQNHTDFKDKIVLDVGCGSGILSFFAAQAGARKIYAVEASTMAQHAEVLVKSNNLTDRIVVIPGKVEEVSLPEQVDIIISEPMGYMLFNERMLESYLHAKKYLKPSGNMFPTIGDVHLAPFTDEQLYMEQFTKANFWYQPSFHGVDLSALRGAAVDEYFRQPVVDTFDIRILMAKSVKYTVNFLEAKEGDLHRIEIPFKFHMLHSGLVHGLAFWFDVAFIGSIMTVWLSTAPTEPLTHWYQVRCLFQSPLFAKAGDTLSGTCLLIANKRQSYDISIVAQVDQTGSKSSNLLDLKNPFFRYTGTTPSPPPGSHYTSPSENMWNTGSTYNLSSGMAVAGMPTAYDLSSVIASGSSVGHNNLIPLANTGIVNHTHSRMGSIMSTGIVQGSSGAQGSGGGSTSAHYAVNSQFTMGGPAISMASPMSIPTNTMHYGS

[5] = target: T5, HeLa cell extract proteins (Homo sapiens, UniProt Q5H9R7)
T5 construct: endogenous in cells; host or cells: HeLa cell extract
T5 sequence (Q5H9R7 1-873): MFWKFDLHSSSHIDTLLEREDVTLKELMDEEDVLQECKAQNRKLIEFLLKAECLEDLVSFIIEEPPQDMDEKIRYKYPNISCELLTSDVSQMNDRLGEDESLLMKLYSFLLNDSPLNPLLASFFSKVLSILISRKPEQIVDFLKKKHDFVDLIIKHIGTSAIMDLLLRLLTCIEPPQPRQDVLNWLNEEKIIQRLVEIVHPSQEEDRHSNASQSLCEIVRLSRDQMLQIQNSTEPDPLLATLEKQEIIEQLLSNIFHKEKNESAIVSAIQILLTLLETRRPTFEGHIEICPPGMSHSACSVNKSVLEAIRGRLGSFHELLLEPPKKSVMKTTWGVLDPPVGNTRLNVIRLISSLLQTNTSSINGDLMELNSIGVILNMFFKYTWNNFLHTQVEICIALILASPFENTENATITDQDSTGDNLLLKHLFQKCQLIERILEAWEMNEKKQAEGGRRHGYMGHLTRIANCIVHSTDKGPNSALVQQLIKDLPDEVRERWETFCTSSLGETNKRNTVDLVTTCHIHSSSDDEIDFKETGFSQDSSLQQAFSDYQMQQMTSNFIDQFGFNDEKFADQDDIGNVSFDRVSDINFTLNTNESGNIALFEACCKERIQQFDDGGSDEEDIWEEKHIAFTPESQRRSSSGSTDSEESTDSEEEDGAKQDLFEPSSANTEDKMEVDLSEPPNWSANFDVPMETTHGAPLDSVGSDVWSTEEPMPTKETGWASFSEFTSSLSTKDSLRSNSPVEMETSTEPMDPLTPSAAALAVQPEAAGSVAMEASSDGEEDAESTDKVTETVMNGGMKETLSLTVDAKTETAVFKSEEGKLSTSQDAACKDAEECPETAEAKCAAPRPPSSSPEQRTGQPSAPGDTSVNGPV

SMILES: Nc1nc2cccc(-c3ccccc3)c2n1Cc1ccc(Cl)c(Cl)c1 [compound 3]
- fold changes relative to vehicle control ([1]; HeLa, protein NUP155): 1.2
- fold changes relative to vehicle control ([2]; captured protein IPO8, HeLa): 0.6
- fold changes relative to vehicle control ([3]; protein CTSD, HeLa): 0.95
- fold changes relative to vehicle control ([4]; HeLa, protein CARM1): 0.95
- fold changes relative to vehicle control ([5]; HeLa, protein SAPS3): 1.11

SMILES: NCCOCCOCC(=O)Nc1nc2ncc(CNc3ccc(C(=O)NC(CCC(=O)O)C(=O)O)cc3)nc2c(=O)[nH]1 (centres unmarked) [compound 6]
- fold changes relative to vehicle control ([1]; HeLa, protein NUP155): 0.92
- fold changes relative to vehicle control ([2]; protein IPO8, HeLa): 0.91
- fold changes relative to vehicle control ([3]; HeLa, captured protein CTSD): 1.12
- fold changes relative to vehicle control ([4]; HeLa, protein CARM1): 0.89
- fold changes relative to vehicle control ([5]; HeLa, protein SAPS3): 0.88

SMILES: Nc1nc2[nH]cc(CCc3ccc(C(=O)N[C@@H](CCC(=O)O)C(=O)O)cc3)c2c(=O)[nH]1 [PTX, pemetrexed]
- fold changes relative to vehicle control [1]: 0.92
- fold changes relative to vehicle control [2]: 0.83
- fold changes relative to vehicle control [3]: 1
- fold changes relative to vehicle control [4]: 0.9
- fold changes relative to vehicle control [5]: 0.94

SMILES: Nc1nc2c(c(=O)[nH]1)N(C=O)C(CNc1ccc(C(=O)N[C@@H](CCC(=O)O)C(=O)O)cc1)CN2 (some centres unmarked) [LEU, leucovorin]
- fold changes relative to vehicle control ([1]; HeLa, protein NUP155): 0.87
- fold changes relative to vehicle control ([2]; protein IPO8, HeLa): 0.86
- fold changes relative to vehicle control ([3]; HeLa, captured protein CTSD): 0.96
- fold changes relative to vehicle control ([4]; HeLa, protein CARM1): 0.95
- fold changes relative to vehicle control ([5]; HeLa, protein SAPS3): 0.94

SMILES: CCCCCCOc1ccc(Cc2cnc(N)nc2N)cc1 [compound 1]
- fold changes relative to vehicle control ([1]; HeLa, protein NUP155): 1.04
- fold changes relative to vehicle control ([2]; captured protein IPO8, HeLa): 0.55
- fold changes relative to vehicle control ([3]; protein CTSD, HeLa): 1.14
- fold changes relative to vehicle control ([4]; HeLa, protein CARM1): 1.02
- fold changes relative to vehicle control ([5]; HeLa, protein SAPS3): 0.96

SMILES: NCCCNc1ccc(C(=O)NC(CCC(=O)O)C(=O)O)cc1 (centres unmarked) [compound 7]
- fold changes relative to vehicle control ([1]; HeLa, protein NUP155): 1.03
- fold changes relative to vehicle control ([2]; protein IPO8, HeLa): 0.82
- fold changes relative to vehicle control ([3]; HeLa, captured protein CTSD): 0.96
- fold changes relative to vehicle control ([4]; HeLa, protein CARM1): 1
- fold changes relative to vehicle control ([5]; HeLa, protein SAPS3): 0.93

SMILES: CCCCCCOc1cccc(Cc2cnc(N)nc2N)c1 [compound 2]
- fold changes relative to vehicle control ([1]; HeLa, protein NUP155): 1.01
- fold changes relative to vehicle control ([2]; captured protein IPO8, HeLa): 0.8
- fold changes relative to vehicle control ([3]; protein CTSD, HeLa): 1.26
- fold changes relative to vehicle control ([4]; HeLa, protein CARM1): 0.98
- fold changes relative to vehicle control ([5]; HeLa, protein SAPS3): 1.09
